The text below walks through data of PMC6522510 (Nature Communications, 2019).

What all share (set-up): species or system AML cell lines (8); Primary HTS, single concentration about 10 uM, Cell Titer Glo viability; log10 luminescence, per cent inhibition relative to cycloheximide control
What all share (details): 72 h, relative to cycloheximide control, log10 luminescence; inhibitor

Experiment [1] relates to M07e.
Experiment [2] relates to MOLM-13.
For experiment [3], the system named is MV4-11.
The test system of experiment [4] is CMK.
Experiment [5] concerns ML-2.
The subject of experiment [6] is U937.
Experiment [7] concerns CHRF288-11.
Experiment [8] concerns CMS.

For `CCCN1CCCC(c2ccc(Nc3nc(Nc4cc(F)ccc4C(N)=O)c4cc[nH]c4n3)c(OC)c2)C1` (centres unmarked) [SJ000573337-1, U23441/128/1], the M07e %inh in experiment [1] came out at 41.75%. For the same molecule, the MOLM-13 %inh in experiment [2] was found to be 102.6%. The MV4-11 %inh in experiment [3] came to 85.37%. For the same molecule, in experiment [4], the CMK %inh worked out at 49.26%. Besides, in experiment [5], the ML-2 %inh came out at 69.05%. Also, the U937 %inh in experiment [6] worked out at 43.81%. Besides, the CHRF288-11 %inh in experiment [7] turned out to be 108.4%. In addition, the CMS %inh in experiment [8] worked out at 31.15%.

Consider `CS(=O)(=O)CCN(CC#N)Cc1ccc(-c2ccc3ncnc(Nc4ccc(OCc5cccc(F)c5)c(Cl)c4)c3c2)o1` [SJ000573016-1, U15872/6/1], for which the M07e %inh in experiment [1] stood at 3.973%. Further, the MOLM-13 %inh in experiment [2] was determined as 0.2014%. Also, in experiment [3], the MV4-11 %inh is recorded as -0.4968%. Also, in experiment [4], the CMK %inh came out at 0.1592%. Moreover, in experiment [5], the ML-2 %inh is -0.1489%. In addition, the U937 %inh in experiment [6] came to 1.155%. In addition, the CHRF288-11 %inh in experiment [7] is listed as -2.462%. For the same molecule, the CMS %inh in experiment [8] came to 3.038%.

For `CC[C@H](C)[C@@H]1NC(=O)[C@H](Cc2ccc(O)cc2)NC(=O)[C@@H](N)CSSC[C@@H](C(=O)N2CCC[C@H]2C(=O)N[C@@H](CC(C)C)C(=O)NCC(N)=O)NC(=O)[C@H](CC(N)=O)NC(=O)[C@H](CCC(N)=O)NC1=O` [SJ000519020-1, OXYTOCIN], the M07e %inh in experiment [1] turned out to be 0.04623%. Besides, the MOLM-13 %inh in experiment [2] is on record as -2.698%. In experiment [3], the MV4-11 %inh came out at 1.343%. In experiment [4], the CMK %inh is -2.47%. The ML-2 %inh in experiment [5] is listed as -0.7579%. Besides, the U937 %inh in experiment [6] is -1.829%. Further, the CHRF288-11 %inh in experiment [7] was -2.465%. Moreover, the CMS %inh in experiment [8] is recorded as -0.7099%.

On to `NCC1(CC(=O)O)CCCCC1` [SJ000287210-5, GABAPENTIN], for which the M07e %inh in experiment [1] is listed as -2.786%. For the same molecule, the MOLM-13 %inh in experiment [2] came out at 0.8376%. In addition, the MV4-11 %inh in experiment [3] turned out to be 5.813%. Besides, the CMK %inh in experiment [4] came out at 0.3533%. For the same molecule, the ML-2 %inh in experiment [5] is reported as -3.023%. Further, the U937 %inh in experiment [6] is -1.755%. In experiment [7], the CHRF288-11 %inh is on record as -2.43%. Also, in experiment [8], the CMS %inh is -2.432%.

Take `O=C1NC(=O)C(N2CCc3ccccc32)=C1c1ccc(Cl)cc1` [SJ000573268-1, DH97836-102A1]: the M07e %inh in experiment [1] was -0.7324%. The MOLM-13 %inh in experiment [2] is 0.0382%. Moreover, in experiment [3], the MV4-11 %inh came to 95.01%. The CMK %inh in experiment [4] came out at 4.78%. Besides, in experiment [5], the ML-2 %inh is -0.2823%. Further, the U937 %inh in experiment [6] came to 0.6171%. For the same molecule, in experiment [7], the CHRF288-11 %inh worked out at 52.52%. Further, in experiment [8], the CMS %inh was -3.009%.

On to `COc1cccc(C2=C(c3cn(C)c4cccc(OC)c34)C(=O)NC2=O)c1` [SJ000581093-1], for which the M07e %inh in experiment [1] came to 15.31%. In experiment [2], the MOLM-13 %inh is reported as 14.52%. Moreover, the MV4-11 %inh in experiment [3] was 0.2916%. Also, the CMK %inh in experiment [4] worked out at 64.38%. For the same molecule, the ML-2 %inh in experiment [5] is given as 1.141%. In addition, the U937 %inh in experiment [6] was determined as 7.981%. In experiment [7], the CHRF288-11 %inh is 15.23%. Also, the CMS %inh in experiment [8] was determined as 2.878%.

For `COc1cccc(C2=C(c3cn(C)c4ccc(Cl)cc34)C(=O)NC2=O)c1` [SJ000581146-1], the M07e %inh in experiment [1] is 8.183%. Besides, the MOLM-13 %inh in experiment [2] was 1.622%. The MV4-11 %inh in experiment [3] was 2.685%. Further, the CMK %inh in experiment [4] was -1.255%. Also, the ML-2 %inh in experiment [5] is -1.297%. Further, in experiment [6], the U937 %inh worked out at 1.209%. Besides, the CHRF288-11 %inh in experiment [7] is -4.42%. In addition, the CMS %inh in experiment [8] was determined as 4.874%.
